Test results reported in paper PMC4506520, “Aneuploidy generates proteotoxic stress and DNA damage concurrently with p53-mediated post-mitotic apoptosis in SAC-impaired cells” (Nature Communications, 2015).

Target: T1, CENP-E (Homo sapiens, UniProt Q02224)
T1 construct: gene CENPE; motor domain
T1 sequence (Q02224 6-329 limits assumed): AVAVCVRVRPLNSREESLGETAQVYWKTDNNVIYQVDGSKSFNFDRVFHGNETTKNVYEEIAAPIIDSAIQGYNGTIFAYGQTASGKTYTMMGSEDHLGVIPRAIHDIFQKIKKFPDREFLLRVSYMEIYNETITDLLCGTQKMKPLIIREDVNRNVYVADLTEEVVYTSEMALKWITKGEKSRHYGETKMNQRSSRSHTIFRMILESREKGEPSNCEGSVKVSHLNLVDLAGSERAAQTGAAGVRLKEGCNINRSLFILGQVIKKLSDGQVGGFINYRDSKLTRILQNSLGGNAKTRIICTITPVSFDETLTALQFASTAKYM
Experiment: ATPase activity assay of the CENP-E motor domain
Format: biochemical

IC50: 2.2 nM
SMILES: COc1cccc2nc(C(=O)N(CCN(C)C)C3CS(=O)(=O)c4c3ccc(C(F)(F)F)c4C#N)c(-c3ccc(F)c(C)c3)n12 (single isomer, unassigned; (+)) [Cmpd-A, (+)-N-[7-cyano-1,1-dioxido-6-(trifluoromethyl)-2,3-dihydro-1-benzothiophen-3-yl]-N-[2-(dimethylamino)ethyl]-3-(4-fluoro-3-methylphenyl)-5-methoxyimidazo[1,2-a]pyridine-2-carboxamide]
